What was measured:
[1] = system: HeLa cells; conditions: tunicamycin; Tsaytler et al., Science 2011; cited from earlier work
[2] = system: HeLa cells; assay: Cytoprotection from ER stress (tunicamycin), cell viability by WST-8; format: cell-based; set-up: key to Cytoprotection from ER stress compared to guanabenz: +: lower cytoprotective effect compared to Guanabenz; ++: similar cytoprotective effect compared to Guanabenz; +++: higher cytoprotective effect compared to Guanabenz; conditions: HeLa cells, 6 hour exposure to tunicamycin 5 μg/mL, compounds 0.5-10 μM, viability 48 h or 72 h
Source text: Cytoprotection against ER stress can be measured by a suitable assay. For example, cytoprotection can be measured in HeLa cells in which ER stress is elicited by the addition of media containing tunicamycin, a mixture of homologous nucleoside antibiotics that inhibits the UDP-HexNAc: polyprenol-P HexNAc-1-P family of enzymes and is used to induce unfolded protein response. Cell viability can be detected in the presence and absence of inhibitor compounds after a set period of time, by measuring the reduction of WST-8 into formazan using a standard cell viability kit (such as Cell Viability Counting Kit-8 from Dojindo). Cytoprotection from ER stress is measured in terms of the percentage increase in viable cells (relative to control) after ER stress. Further details of a suitable assay are set forth in the accompanying Examples section.
This assay is described in Tsaytler et al. (Science 2011). HeLa Cells were cultured in Eagle's Minimum Essential Medium (EMEM) supplemented with Glutamine, Sodium Pyruvate, Non-Essential Amino Acids, Penicillin and Streptomycin containing 10% Foetal Bovine Serum (FBS), at 37° C. in 5% CO2 atmosphere. Cells were plated in 96 well plates at a density of 17,000 cells/mL the day before the treatment. ER stress was elicited by addition of 5 μg/mL tunicamycin (Sigma-Aldrich) together with PPP1R15A inhibitors (0.5-10 μM). Media were changed 6h later with fresh media and the cytoprotection was maintained by the addition of PPP1R15A inhibitors (0.5-10 μM). Cell viability was assessed by measuring the reduction of WST-8 into formazan using Cell Counting Kit-8 (Sigma) according to the supplier's recommendation, 48 h or 72h after tunicamycin treatment. Cytoprotection from ER stress is measured in terms of cytoprotective potency effect compared to the reference compound Guanabenz (Tsaytler et al., Science 2011) after ER stress: • ‘+’ no cytoprotective effect; • ‘+’ lower cytoprotective effect compared to Guanabenz; • ‘++’ similar cytoprotective effect compared to Guanabenz; • ‘+++’ higher cytoprotective effect compared to Guanabenz.
Table 1 summarizes the results of cytoprotective effect of different compounds of the invention, compared to guanabenz, after the stress induced by a 6 hour exposure of tunicamycin.

[3] = target: T1, human alpha2A receptor (Homo sapiens, UniProt P08913); assay: Functional GPCR assay for adrenergic α2A receptor (CellKey detection method); format: cell-based; conditions: agonist activity, CHO cells expressing human alpha2A receptor, impedance (CellKey); read-out: Functional adrenergic alpha2 receptor assay EC50
T1 construct: CHO cells endogenously expressing human alpha2A receptor; endogenous in cells; host or cells: CHO cells
T1 sequence (P08913 1-465): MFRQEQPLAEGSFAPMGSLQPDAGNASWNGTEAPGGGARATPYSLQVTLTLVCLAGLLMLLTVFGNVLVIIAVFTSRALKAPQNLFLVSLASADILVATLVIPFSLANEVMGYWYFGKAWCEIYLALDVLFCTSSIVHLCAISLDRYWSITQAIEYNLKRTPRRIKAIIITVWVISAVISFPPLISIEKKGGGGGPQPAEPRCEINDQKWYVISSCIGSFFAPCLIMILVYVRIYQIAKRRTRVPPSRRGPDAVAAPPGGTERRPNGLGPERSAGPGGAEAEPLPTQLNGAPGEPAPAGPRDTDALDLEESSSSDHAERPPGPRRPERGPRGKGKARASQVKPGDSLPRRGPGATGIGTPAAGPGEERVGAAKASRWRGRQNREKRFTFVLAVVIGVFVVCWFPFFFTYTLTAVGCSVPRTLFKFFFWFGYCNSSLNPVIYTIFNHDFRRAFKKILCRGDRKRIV
Experimental: The agonist activity of compounds was evaluated on CHO cells […] expressing human alpha2A receptor and was determined by measuring their effects on impedance modulation using the CellKey detection method. Cells were seeded onto 96-well plate at density of 6×10^4 cells/well in HBSS buffer (Invitrogen)+20 mM HEPES (Invitrogen) with 0.1% BSA and are allowed to equilibrate for 60 min at 28° C. before the start of the experiment. Plates were placed onto the system and measurements were made at a temperature of 28° C. Solutions were added simultaneously to all 96 wells using an integrated fluidics system: HBSS (basal control), reference agonist at 100 nM (stimulated control), reference agonist (EC50 determination) or the test compounds. Impedance measurements are monitored for 10 minutes after ligand addition. The standard reference agonist is epinephrine, which is tested in each experiment at several concentrations to generate a concentration-response curve from which its EC50 value is calculated.
Dose-response data from test compounds were analysed with Hill software using non-linear regression analysis of the concentration-response curves generated with mean replicate values using Hill equation curve fitting.

[4] = system: mouse embryonic fibroblasts lipofected with poly I:C; assay: In vitro inflammation/infection model: poly I:C induced mouse embryonic fibroblasts; format: cell-based; conditions: 25 μM, 6h, IFN-beta ELISA in culture supernatants
Experimental: Mouse Embryonic Fibroblasts (MEFs) were lipofected with poly I:C and treated with […] compounds of the invention (25 μM) for 6h. After 6h of culture, elF2alpha-phosphorylation (elF2a-P) and PPP1R15A (GADD34) expression was monitored by western blotting, while type-1 Interferon(IFN)-beta production was quantified in culture supernatants by ELISA. Control (nt) and poly I:C/DMSO are respectively negative and positive controls. Poly I:C (polyinosinic:polycytidylic acid or polyinosinic-polycytidylic acid sodium salt) is an immunostimulant used to simulate viral infections. Poly I:C which is structurally similar to double-stranded RNA, is known to interact with toll-like receptor 3 which is expressed in the intracellular compartments of B-cells and dendritic cells. Guanabenz (25 μM) was used as reference inhibitory compound.
MEFs were cultured in DMEM, 10% FCS (HyClone, Perbio), 100 units/ml penicillin, 100 μg/ml streptomycin, 2 mM glutamine, 1× MEM non-essential amino acids and 50 μM 2-mercaptoethanol. MEFS were treated for the indicated time with 10 μg/ml poly I:C (InvivoGen) in combination with lipofectamine 2000 (Invitrogen).
Cells were lysed in 1% Triton X-100, 50 mM Hepes, 10 mM NaCl, 2.5 mM MgCl2, 2 mM EDTA, 10% glycerol, supplemented with Complete Mini Protease Inhibitor Cocktail Tablets (Roche). Protein quantification was performed using the BCA Protein Assay (Pierce). 25-50 μg of Triton X-100-soluble material was loaded on 2%-12% gradient or 8% SDS-PAGE before immunoblotting and chemi-luminescence detection (SuperSignal West Pico Chemi-luminescent Substrate, Pierce). Rabbit polyclonal antibodies recognizing GADD34 (C-19) were from Santa Cruz Biotechnology and anti-elF2alpha[pS^52] were from Invitrogen.
IFN-beta quantification in culture supernatant was performed using the Mouse Interferon Beta ELISA kit (PBL Interferon Source) according to manufacturer instructions.
Normal response of MEFs to poly I:C is characterized by PPP1R15A expression, increase in elF2alpha-P (variable in time and related to the levels PPP1R15A expression) mediated by PKR activation and type-I IFN production (range 500 to 700 pg/ml). Knock out PPP1R15A MEFs are unable to produce this cytokine in response to poly I:C.
The potency of compounds of the invention to inhibit PPP1R15A was evaluated by measuring the increase of elF2alpha phosphorylation, the decrease of PPP1R15A expression due to its own pharmacological inhibition resulting in general protein synthesis inhibition and type-I IFN production.

[5] = system: rotenone injured primary mesencephalic rat neurons; assay: In vitro Parkinson's disease model: rotenone injured primary mesencephalic rat neurons; format: cell-based; conditions: rotenone 10 nM, 24 hours; total number of TH positive neurons
Experimental: Rat dopaminergic neurons were cultured as described by Schinelli et al., (1988 J. Neurochem 50 pp1900-07) and Visanji et al., (2008 FASEB J. 22(7) pp2488-97). Briefly, the midbrains obtained from 15-day old rat embryos (Janvier Labs, France) were dissected under a microscope. The embryonic midbrains were removed and placed in ice-cold medium of Leibovitz (L15, Pan Biotech, Batch: 9310614) containing 2% of Penicillin-Streptomycin (PS, Pan Biotech, Batch: 1451013) and 1% of bovine serum albumin (BSA, Pan Biotech, Batch: h140603). The ventral portion of the mesencephalic flexure, a region of the developing brain rich in dopaminergic neurons, was used for the cell preparations.
The midbrains were dissociated by trypsinisation for 20 min at 37° C. (Trypsin 0.05% EDTA 0.02%, PanBiotech, Batch: 5890314). The reaction was stopped by the addition of Dulbecco's modified Eagle's medium (DMEM, PanBiotech, Batch: 1300714) containing DNAase I grade II (0.1 mg/ml, PanBiotech, Batch: H140508) and 10% of foetal calf serum (FCS, Gibco, Batch: 41Q7218K). Cells were then mechanically dissociated by 3 passages through a 10 ml pipette. Cells were then centrifuged at 180×g for 10 min at +4° C. on a layer of BSA (3.5%) in L15 medium. The supernatant was discarded and the cell pellets were re-suspended in a defined culture medium consisting of Neurobasal (Invitrogen, Batch: 1636133) supplemented with B27 (2%, Invitrogen, Batch: 1660670), L-glutamine (2 mM, PanBiotech, Batch: 8150713) and 2% of PS solution and 10 ng/ml of Brain-derived neurotrophic factor (BDNF, PanBiotech, Batch: H140108) and 1 ng/ml of Glial-Derived Neurotrophic Factor (GDNF, Pan Biotech, Batch: H130917). Viable cells were counted in a Neubauer cytometer using the trypan blue exclusion test. The cells were seeded at a density of 40 000 cells/well in 96 well-plates pre-coated with poly-L-lysine (Corning Biocoat, Batch: 6614022) and maintained in a humidified incubator at 37° C. in 5% CO2/95% air atmosphere. Half of the medium was changed every 2 days with fresh medium.
On day 6 of culture, the medium was removed and fresh medium was added, without or with rotenone (Sigma, Batch: 021M2227V) at 10 nM diluted in control medium, 3 wells per condition were assessed. […]
The immunolabeled cultures were automatically examined with ImageXpress (Molecular device USA). For each condition, 20 automatically fields per well (representing ˜80% of the total surface of the well) from 3 wells were analyzed. The total number of TH neurons was automatically analyzed using Custom module editor (Molecular Devices, USA). […] All values were expressed as mean +/−SEM (s.e. mean) of the 1 culture (n=3 wells per condition per culture).

CCC1(C2=NCCN2)Cc2ccccc2O1 (stereo not drawn) [efaroxan]
protection of cells from cytotoxic ER stress [1]: Neither the α2-adrenergic receptor agonist clonidine, nor the α2-adrenergic receptor antagonist efaroxan protected cells

N/C(=N\OCCO)N/N=C/c1ccccc1Cl [Compound 6, 2-(2-chlorobenzylidene)-N′-(2-hydroxyethoxy)hydrazinecarboximidamide]
Cytoprotection from ER stress compared to guanabenz [2]: ++ | EC50 [3]: > 33.3 µM | prevention of type-I IFN production (FIG. 9) [4]: prevent type-I IFN production

CCCO/N=C(\N)N/N=C/c1c(F)cccc1Cl [Compound 19, 2-(2-chloro-6-fluorobenzylidene)-N′-propoxyhydrazinecarboximidamide]
Cytoprotection from ER stress compared to guanabenz [2]: +++

CS(=O)(=O)CCCO/N=C(\N)N/N=C/c1ccccc1Cl [Compound 4, 2-(2-chlorobenzylidene)-N′-[3-(methylsulfonyl)propoxy]hydrazinecarboximidamide]
Cytoprotection from ER stress compared to guanabenz [2]: ++

C=CCO/N=C(\N)N/N=C/c1ccccc1Cl [Compound 5, 2-(2-chlorobenzylidene)-N′-(prop-2-en-1-yloxy)hydrazinecarboximidamide]
Cytoprotection from ER stress compared to guanabenz [2]: + | protection of rotenone injured primary mesencephalic rat neurons (FIG. 3) [5]: dose dependent protection

CCCO/N=C(\N)N/N=C/c1c(Cl)cccc1Cl [Compound 21, 2-(2,6-dichlorobenzylidene)-N-propoxyhydrazinecarboximidamide]
Cytoprotection from ER stress compared to guanabenz [2]: ++

CCCO/N=C(\N)N/N=C/c1ccncc1Cl [Compound 23, 2-[(3-chloropyridin-4-yl)methylidene]-N-propoxyhydrazinecarboximidamide]
Cytoprotection from ER stress compared to guanabenz [2]: ++

CC(C)=CCONC(=N)N/N=C/c1ccccc1Cl [Compound 14, 2-(2-chlorobenzylidene)-N′-[(3-methylbut-2-en-1-yl)oxy]hydrazinecarboximidamide]
Cytoprotection from ER stress compared to guanabenz [2]: ++

CCSCCONC(=N)N/N=C/c1ccccc1Cl [Compound 15, 2-(2-chlorobenzylidene)-N-[2-(ethylsulfanyl)ethoxy]hydrazinecarboximidamide]
Cytoprotection from ER stress compared to guanabenz [2]: ++ | EC50 [3]: > 33.3 µM

CCOCCONC(=N)N/N=C/c1ccccc1Cl [Compound 13, 2-(2-chlorobenzylidene)-N-(2-ethoxyethoxy)hydrazinecarboximidamide]
Cytoprotection from ER stress compared to guanabenz [2]: ++ | EC50 [3]: > 33.3 µM

Source: patent US11084783B2, “O-alkyl-benzylideneguanidine derivatives and therapeutic use for the treatment of disorders associated with an accumulation of misfolded proteins” (INFLECTIS BIOSCIENCE, priority 2014, dated 2021)
